This assay relates to Rattus norvegicus. The experiment in a line: Percent fall in blood glucose level in male Sprague-Dawley rats when at 100 mg/kg dose was calculated by AUC method. It counts as functional.
Regarding `Clc1ccc(-c2cc(Cc3nnn[nH]3)[nH]n2)cc1`, the Activity is recorded as 10.8%.

With `CN(CCOc1ccc(-c2cc(Cc3nnn[nH]3)[nH]n2)cc1)Cc1ccccc1`, the Activity is on record as 18%.

In the case of `CSCCOc1ccc(-c2cc(Cc3nnn[nH]3)[nH]n2)cc1`, the Activity is 24.6%.

Regarding `Brc1ccc(-c2cc(Cc3nnn[nH]3)[nH]n2)cc1`, the Activity was 18%.

Regarding `c1ccc2oc(-c3cc(Cc4nnn[nH]4)n[nH]3)cc2c1`, the Activity is 6.2%.

Take `c1csc(-c2cc(Cc3nnn[nH]3)n[nH]2)c1`: the Activity was 21.4%.

Regarding `CSc1ccc(-c2cc(Cc3nnn[nH]3)[nH]n2)cc1`, the Activity is 6.06%.

With `c1ccc(-c2cc(Cc3nnn[nH]3)n[nH]2)cc1`, the Activity is 10.6%.

Consider `CN(C)C(=N)NC(=N)N` [METFORMIN], for which the Activity is 12.9%.

The record behind these values is ChEMBL document CHEMBL1143540, “Synthesis and in vivo antihyperglycemic activity of 5-(1H-pyrazol-3-yl)methyl-1H-tetrazoles” (2005).
